Laboratory results: PubChem BioAssay (NCI)
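The compound was tested at five concentrations on cells cultured in 96-well plates, with a 48-hour exposure period. TGI: concentration producing complete growth inhibition.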

What was measured:
Experiment in all cases: NCI tumour cell line growth inhibition, 48 h
SNB-75 CNS = tested on: SNB-75 CNS
HOP-92 NSCLC = tested on: HOP-92 NSCLC
TK-10 renal = tested on: TK-10 renal
RXF 393 renal = tested on: RXF 393 renal
HOP-62 NSCLC = tested on: HOP-62 NSCLC
K-562 leukemia = tested on: K-562 leukemia
MCF7 breast = tested on: MCF7 breast
NCI-H226 lung = tested on: NCI-H226 lung
A549 NSCLC = tested on: A549 NSCLC
BT-549 breast = tested on: BT-549 breast
MOLT-4 leukemia = tested on: MOLT-4 leukemia
UO-31 renal = tested on: UO-31 renal
OVCAR-3 ovarian = tested on: OVCAR-3 ovarian
LOX IMVI melanoma = tested on: LOX IMVI melanoma
SNB-19 CNS = tested on: SNB-19 CNS
SF-268 CNS = tested on: SF-268 CNS
OVCAR-4 ovarian = tested on: OVCAR-4 ovarian
MDA-MB-231 breast = tested on: MDA-MB-231 breast
SK-OV-3 ovarian = tested on: SK-OV-3 ovarian
786-0 renal = tested on: 786-0 renal
M14 melanoma = tested on: M14 melanoma
SN12C renal = tested on: SN12C renal
MDA-N = tested on: MDA-N
SR leukemia = tested on: SR leukemia
SF-295 CNS = tested on: SF-295 CNS
NCI-H23 lung = tested on: NCI-H23 lung
A498 renal = tested on: A498 renal
HT29 colon = tested on: HT29 colon
IGROV1 ovarian = tested on: IGROV1 ovarian
OVCAR-8 ovarian = tested on: OVCAR-8 ovarian
T-47D breast = tested on: T-47D breast
SF-539 CNS = tested on: SF-539 CNS
MALME-3M melanoma = tested on: MALME-3M melanoma
SW-620 colon = tested on: SW-620 colon
EKVX NSCLC = tested on: EKVX NSCLC
OVCAR-5 ovarian = tested on: OVCAR-5 ovarian
UACC-257 melanoma = tested on: UACC-257 melanoma
HCC-2998 colon = tested on: HCC-2998 colon
SK-MEL-28 melanoma = tested on: SK-MEL-28 melanoma
COLO 205 colon = tested on: COLO 205 colon
KM12 colon = tested on: KM12 colon
CCRF-CEM leukemia = tested on: CCRF-CEM leukemia
NCI/ADR-RES ovarian = tested on: NCI/ADR-RES ovarian
CAKI-1 renal = tested on: CAKI-1 renal
PC-3 prostate = tested on: PC-3 prostate
DU-145 prostate = tested on: DU-145 prostate
HCT-116 colon = tested on: HCT-116 colon
UACC-62 melanoma = tested on: UACC-62 melanoma
SK-MEL-5 melanoma = tested on: SK-MEL-5 melanoma
SK-MEL-2 melanoma = tested on: SK-MEL-2 melanoma
U251 CNS = tested on: U251 CNS
HL-60(TB) leukemia = tested on: HL-60(TB) leukemia
HCT-15 colon = tested on: HCT-15 colon
ACHN renal = tested on: ACHN renal
MDA-MB-435 = tested on: MDA-MB-435
HS 578T breast = tested on: HS 578T breast
NCI-H460 lung = tested on: NCI-H460 lung
NCI-H522 lung = tested on: NCI-H522 lung
RPMI-8226 leukemia = tested on: RPMI-8226 leukemia

**Q.** What does the source list for `CCN=c1nc2sc3c(c2c(NC(=S)NCC)s1)CCN(N1CCc2c(sc4nc(=NCC)sc(NC(=S)NCC)c24)C1)C3`?
**A.** TGI (SNB-75 CNS): > 100 µM; TGI (HOP-92 NSCLC): 84.7 µM; TGI (TK-10 renal): > 100 µM; TGI (RXF 393 renal): 53.2 µM; TGI (HOP-62 NSCLC): > 100 µM; TGI (K-562 leukemia): > 100 µM; TGI (MCF7 breast): > 100 µM; TGI (NCI-H226 lung): > 100 µM; TGI (A549 NSCLC): > 100 µM; TGI (BT-549 breast): > 100 µM; TGI (MOLT-4 leukemia): > 100 µM; TGI (UO-31 renal): > 100 µM; TGI (OVCAR-3 ovarian): > 100 µM; TGI (LOX IMVI melanoma): > 100 µM; TGI (SNB-19 CNS): > 100 µM; TGI (SF-268 CNS): > 100 µM; TGI (OVCAR-4 ovarian): > 100 µM; TGI (MDA-MB-231 breast): 82.6 µM; TGI (SK-OV-3 ovarian): > 100 µM; TGI (786-0 renal): > 100 µM; TGI (M14 melanoma): > 100 µM; TGI (SN12C renal): > 100 µM; TGI (MDA-N): > 100 µM; TGI (SR leukemia): > 100 µM; TGI (SF-295 CNS): > 100 µM; TGI (NCI-H23 lung): > 100 µM; TGI (A498 renal): > 100 µM; TGI (HT29 colon): > 100 µM; TGI (IGROV1 ovarian): > 100 µM; TGI (OVCAR-8 ovarian): > 100 µM; TGI (T-47D breast): > 100 µM; TGI (SF-539 CNS): 39.5 µM; TGI (MALME-3M melanoma): > 100 µM; TGI (SW-620 colon): > 100 µM; TGI (EKVX NSCLC): > 100 µM; TGI (OVCAR-5 ovarian): > 100 µM; TGI (UACC-257 melanoma): > 100 µM; TGI (HCC-2998 colon): > 100 µM; TGI (SK-MEL-28 melanoma): > 100 µM; TGI (COLO 205 colon): > 100 µM; TGI (KM12 colon): > 100 µM; TGI (CCRF-CEM leukemia): > 100 µM; TGI (NCI/ADR-RES ovarian): > 100 µM; TGI (CAKI-1 renal): > 100 µM; TGI (PC-3 prostate): > 100 µM; TGI (DU-145 prostate): > 100 µM; TGI (HCT-116 colon): 52.3 µM; TGI (UACC-62 melanoma): > 100 µM; TGI (SK-MEL-5 melanoma): > 100 µM; TGI (SK-MEL-2 melanoma): > 100 µM; TGI (U251 CNS): > 100 µM; TGI (HL-60(TB) leukemia): > 100 µM; TGI (HCT-15 colon): > 100 µM; TGI (ACHN renal): > 100 µM; TGI (MDA-MB-435): > 100 µM; TGI (HS 578T breast): > 100 µM; TGI (NCI-H460 lung): > 100 µM; TGI (NCI-H522 lung): > 100 µM

**Q.** Which results are given for `O=S1OC[C@H](CCCl)O1` (stereo not given in full)?
**A.** TGI (SNB-75 CNS): > 100 µM; TGI (HOP-92 NSCLC): > 100 µM; TGI (TK-10 renal): > 100 µM; TGI (HOP-62 NSCLC): > 100 µM; TGI (K-562 leukemia): > 100 µM; TGI (MCF7 breast): > 100 µM; TGI (NCI-H226 lung): > 100 µM; TGI (A549 NSCLC): > 100 µM; TGI (BT-549 breast): > 100 µM; TGI (MOLT-4 leukemia): > 100 µM; TGI (UO-31 renal): > 100 µM; TGI (OVCAR-3 ovarian): > 100 µM; TGI (LOX IMVI melanoma): > 100 µM; TGI (SNB-19 CNS): > 100 µM; TGI (RPMI-8226 leukemia): > 100 µM; TGI (OVCAR-4 ovarian): > 100 µM; TGI (MDA-MB-231 breast): > 100 µM; TGI (SK-OV-3 ovarian): > 100 µM; TGI (786-0 renal): > 100 µM; TGI (M14 melanoma): > 100 µM; TGI (SN12C renal): > 100 µM; TGI (MDA-N): > 100 µM; TGI (SR leukemia): > 100 µM; TGI (SF-295 CNS): > 100 µM; TGI (NCI-H23 lung): > 100 µM; TGI (A498 renal): > 100 µM; TGI (HT29 colon): > 100 µM; TGI (IGROV1 ovarian): > 100 µM; TGI (OVCAR-8 ovarian): > 100 µM; TGI (T-47D breast): > 100 µM; TGI (SF-539 CNS): > 100 µM; TGI (MALME-3M melanoma): > 100 µM; TGI (SW-620 colon): > 100 µM; TGI (EKVX NSCLC): > 100 µM; TGI (OVCAR-5 ovarian): > 100 µM; TGI (UACC-257 melanoma): > 100 µM; TGI (HCC-2998 colon): > 100 µM; TGI (SK-MEL-28 melanoma): > 100 µM; TGI (COLO 205 colon): > 100 µM; TGI (KM12 colon): > 100 µM; TGI (CCRF-CEM leukemia): > 100 µM; TGI (NCI/ADR-RES ovarian): > 100 µM; TGI (CAKI-1 renal): > 100 µM; TGI (PC-3 prostate): > 100 µM; TGI (DU-145 prostate): > 100 µM; TGI (HCT-116 colon): > 100 µM; TGI (UACC-62 melanoma): > 100 µM; TGI (SK-MEL-5 melanoma): > 100 µM; TGI (SK-MEL-2 melanoma): > 100 µM; TGI (U251 CNS): > 100 µM; TGI (HL-60(TB) leukemia): > 100 µM; TGI (HCT-15 colon): > 100 µM; TGI (ACHN renal): > 100 µM; TGI (MDA-MB-435): > 100 µM; TGI (HS 578T breast): > 100 µM; TGI (NCI-H460 lung): > 100 µM; TGI (NCI-H522 lung): > 100 µM
